In the supplement of paper PMC11208160:

assay: recombinant barcode read abundance after kanamycin selection (control-corrected) (log10(CPM+1)); higher = more efficient recombination; sequences stand for … in AGTGCAGAGAAAATCGGCCAGTTTTCTCTGCCTGCAGTCCGCATGCCGT…AGATTTATGCAGCGGACTGCCTTTCTCCCAAAGTGATAAACCGGACAGTATCATGGACCGGTTTTCCCGGTAATCCGTATTTGCAAGGTTGGTTTCACT; site = the 11-nt target
Method in brief: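 Duplicate cultures were plated either on chloramphenicol/ampicillin LB agar, serving as control, or on chloramphenicol/ampicillin/kanamycin with 0.1 mM IPTG. These came from a pooled E. coli library co-electroporated with a donor plasmid, each member pairing a target with an IS621 bridge RNA target-binding loop. Recombination efficiency equals averaged, control-corrected counts per million of recombinant-junction barcodes. It is listed as log10(CPM+1).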
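Note: IS621 recombinase and bridge RNA in Escherichia coli cells.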

Row | Sequence | recombinant barcode read abundance (log10)
1 | CCTGGGACTTGGGTTCTAACCTGTTGCGC (site CCTGGGACTGC) | 1.24
2 | CCTGGGACTTGGGTTCTAACCTGTTGCGC (site CCTGGGACTTC) | 0.214
3 | CCTGGGACTTGGGTTCTAACCTGTTGCGG (site CCTGGGACTAC) | 0
4 | CCTGGGACTTGGGTTCTAACCTGTTGCGG (site CCTGGGACTCC) | 2.29
5 | CCTGGGACTTGGGTTCTAACCTGTTGCGG (site CCTGGGACTGC) | 0.532
6 | CCTGGGACTTGGGTTCTAACCTGTTGCGG (site CCTGGGACTTC) | 0.474
7 | CCTGGGACTTGGGTTCTAACCTGTTGCGT (site CCTGGGACTAC) | 1.31
8 | CCTGGGACTTGGGTTCTAACCTGTTGCGT (site CCTGGGACTCC) | 0.807
9 | CCTGGGACTTGGGTTCTAACCTGTTGCGT (site CCTGGGACTGC) | 0.178
10 | CCTGGGACTTGGGTTCTAACCTGTTGCGT (site CCTGGGACTTC) | 0.0691
11 | CCTGTAGCTTGGGTTCTAACCTGTTGCCT (site CCGGTAACTAG) | 0.0829
12 | CCTGTAGCTTGGGTTCTAACCTGTTGCCT (site CCTGTAGCTAG) | 1.13
13 | CCTTAGCCTTGGGTTCTAACCTGTTGCCT (site CCTTACCCTAG) | 0.0511
14 | CCTTAGCCTTGGGTTCTAACCTGTTGCCT (site CCTTAGCCTAG) | 0.385
15 | CCTTCTACTTGGGTTCTAACCTGTTGCTA (site CCTTCTACTAG) | 0.0484
16 | CCTTCTACTTGGGTTCTAACCTGTTGCTA (site CCTTCTACTTA) | 0.392
17 | CCTTGCTCTTGGGTTCTAACCTGTTGCCT (site CCTTGCTCTAG) | 0.317
18 | CCTTGCTCTTGGGTTCTAACCTGTTGCCT (site CCTTGGACTAG) | 0.114
19 | CCTTGGACTTGGGTTCTAACCTGTTGCAA (site CCTTGGACTTT) | 0.546
20 | CCTTGGACTTGGGTTCTAACCTGTTGCAA (site GCTTGGACTCT) | 0.0226
21 | CCTTGGTCTTGGGTTCTAACCTGTTGCCT (site CCTTGGTCTAG) | 0.216
22 | CCTTGGTCTTGGGTTCTAACCTGTTGCCT (site GCTTGGCCTAG) | 0.107

Row | Sequence | recombinant barcode read abundance (log10)
23 | CCTTTCACTTGGGTTCTAACCTGTTGCCT (site CCTATCCCTAG) | 0.029
24 | CCTTTCACTTGGGTTCTAACCTGTTGCCT (site CCTTTCACTAG) | 0.228
25 | CGAATCGCTTGGGTTCTAACCTGTTGCCT (site CGAATCACTAG) | 0.374
26 | CGAATCGCTTGGGTTCTAACCTGTTGCCT (site CGAATCCCTAG) | 0.0216
27 | CGAATCGCTTGGGTTCTAACCTGTTGCCT (site CGAATCGCTAG) | 0.994
28 | CGAATCGCTTGGGTTCTAACCTGTTGCCT (site CGAATCTCTAG) | 0.084
29 | CGAATCTCTTGGGTTCTAACCTGTTGCCT (site CGAATCACTAG) | 0.0112
30 | CGAATCTCTTGGGTTCTAACCTGTTGCCT (site CGAATCCCTAG) | 0.221
31 | CGAATCTCTTGGGTTCTAACCTGTTGCCT (site CGAATCGCTAG) | 0
32 | CGAATCTCTTGGGTTCTAACCTGTTGCCT (site CGAATCTCTAG) | 0.616
33 | CGAATGTCTTGGGTTCTAACCTGTTGCTG (site CGAATGTCTCA) | 1.2
34 | CGAATGTCTTGGGTTCTAACCTGTTGCTG (site GGTATGTCTCA) | 0.202
35 | CGACTCCCTTGGGTTCTAACCTGTTGCGT (site CGACTCCCTAC) | 1.14
36 | CGACTCCCTTGGGTTCTAACCTGTTGCGT (site GTCAAGTCTGA) | 0.391
37 | CGACTGTCTTGGGTTCTAACCTGTTGCCT (site AAGTACACTCA) | 0.0207
38 | CGACTGTCTTGGGTTCTAACCTGTTGCCT (site CGACTGTCTAG) | 1.92
39 | CGAGAACCTTGGGTTCTAACCTGTTGCCT (site AGAGAACCTAG) | 0.0999
40 | CGAGAACCTTGGGTTCTAACCTGTTGCCT (site CGAGAACCTAG) | 1.67
41 | CGAGAACCTTGGGTTCTAACCTGTTGCCT (site GGAGAACCTAG) | 0.0316
42 | CGAGAACCTTGGGTTCTAACCTGTTGCCT (site TGAGAACCTAG) | 0.12
43 | CGAGCAACTTGGGTTCTAACCTGTTGCTT (site CGAGCAACTAA) | 0.0517
